By IC50 is commonly meant the point on the concentration scale where inhibition reaches its midpoint. The low end stands for greater potency, the high end for weaker potency.

Here are results for one compound from article PMC7076571 (Neoplasia (New York, N.Y.), 2020).

What all share (format): biochemical
Test [1] addresses RBX1 (Homo sapiens, UniProt P62877+Q13616, Q13616:L421E/Q13616:V451E/Q13616:V452K/Q13616:Y455K). Description: in vitro CUL1 neddylation assay.
Test [2] concerns the target T1, CUL5 (Homo sapiens, UniProt Q93034+Q9UBF6, Q93034:L407E/Q93034:L439K/Q93034:V440K).
T1 sequence (Q93034 401-780 L407E/L439K/V440K): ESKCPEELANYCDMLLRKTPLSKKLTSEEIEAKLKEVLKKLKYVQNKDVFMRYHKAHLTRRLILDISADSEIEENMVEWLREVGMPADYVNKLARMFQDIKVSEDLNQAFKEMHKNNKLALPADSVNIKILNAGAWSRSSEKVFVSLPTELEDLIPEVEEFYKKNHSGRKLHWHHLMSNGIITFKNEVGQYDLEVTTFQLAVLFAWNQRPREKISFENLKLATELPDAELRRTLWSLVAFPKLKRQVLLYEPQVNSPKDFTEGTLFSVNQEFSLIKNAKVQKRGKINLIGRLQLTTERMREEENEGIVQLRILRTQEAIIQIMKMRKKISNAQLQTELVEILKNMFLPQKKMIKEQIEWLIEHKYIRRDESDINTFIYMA
T1 sequence (Q9UBF6 2-113): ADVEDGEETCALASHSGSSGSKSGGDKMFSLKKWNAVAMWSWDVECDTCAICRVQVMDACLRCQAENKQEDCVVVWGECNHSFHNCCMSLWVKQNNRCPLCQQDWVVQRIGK
Description: in vitro CUL5 neddylation assay.

Test [3] concerns the target T2, SAG (Homo sapiens, UniProt Q93034+Q9UBF6, Q93034:L407E/Q93034:L439K/Q93034:V440K).
T2 sequence (Q9UBF6 2-113): T1 sequence (Q9UBF6 2-113)
T2 sequence (Q93034 401-780 L407E/L439K/V440K): T1 sequence (Q93034 401-780 L407E/L439K/V440K)
Description: in vitro CUL5 neddylation assay.

Sequence of RBX1 (Q13616 411-776 L421E/V451E/V452K/Y455K): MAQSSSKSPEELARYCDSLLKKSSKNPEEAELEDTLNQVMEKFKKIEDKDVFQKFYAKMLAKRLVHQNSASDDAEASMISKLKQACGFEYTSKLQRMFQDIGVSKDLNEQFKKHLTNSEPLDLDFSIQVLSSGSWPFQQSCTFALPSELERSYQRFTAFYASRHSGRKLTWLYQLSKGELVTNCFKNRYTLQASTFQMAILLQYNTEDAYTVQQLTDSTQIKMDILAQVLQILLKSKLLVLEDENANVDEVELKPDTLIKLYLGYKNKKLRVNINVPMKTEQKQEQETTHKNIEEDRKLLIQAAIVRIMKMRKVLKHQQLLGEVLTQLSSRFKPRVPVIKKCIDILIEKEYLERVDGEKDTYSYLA
Sequence of RBX1 (P62877 whole entry): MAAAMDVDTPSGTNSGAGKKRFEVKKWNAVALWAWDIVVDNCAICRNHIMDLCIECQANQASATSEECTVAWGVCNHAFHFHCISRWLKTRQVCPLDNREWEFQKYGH

Regarding `Cc1cc2c(C(C)C)c(O)c(O)c(C=O)c2c(O)c1-c1c(C)cc2c(C(C)C)c(O)c(O)c(C=O)c2c1O` [gossypol], the half-maximal inhibitory concentration (IC50) in test [1] was 3.4 µM; in test [2], 4.25 µM; in test [3], 4.25 µM.
